According to patent US20060276464A1, “Diarylsulfone sulfonamides and use thereof” (Wyeth, priority 2005, published 2006):
Like-named read-outs stand apart in the source and are kept apart here.

Target: T1, SFRP-1 (Homo sapiens, UniProt Q8N474)
T1 sequence (Q8N474 32-314): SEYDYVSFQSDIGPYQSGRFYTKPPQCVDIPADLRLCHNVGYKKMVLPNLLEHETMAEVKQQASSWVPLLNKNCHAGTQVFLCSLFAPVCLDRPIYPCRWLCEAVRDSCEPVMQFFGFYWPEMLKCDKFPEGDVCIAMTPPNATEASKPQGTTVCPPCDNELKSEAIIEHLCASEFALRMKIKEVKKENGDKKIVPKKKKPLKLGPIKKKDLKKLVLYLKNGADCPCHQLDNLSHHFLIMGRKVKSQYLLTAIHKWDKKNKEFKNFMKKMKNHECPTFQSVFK
Assay: Cell-based assay for in vitro measurement of SFRP-1/SARP2 antagonist activity (U2OS cells co-transfected with 16x TCF-tk-Luciferase reporter, Wnt and hSFRP-1);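 further: U2OS cells co-transfected with a TCF-tk luciferase reporter, a Wnt vector, hSFRP-1 or empty vector and CMV-βgal, luciferase luminescence read in cell lysates alongside βgal activity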
Conditions: for fold induction at 20 µM / fold induction at 15 µM: U2OS

[1] = read-out: Fold Induction with SFRP-1, Conc 20 μM, with SFRP-1, fold induction over SFRP-1 control, single dose
[2] = read-out: Fold Induction without SFRP-1, Conc 20 μM, without SFRP-1, single dose
[3] = read-out: Fold Induction with SFRP-1, Conc 15 μM, with SFRP-1, fold induction over SFRP-1 control, single dose
[4] = read-out: Fold Induction without SFRP-1, Conc 15 μM, without SFRP-1, single dose
[5] = Conc 15 μM, with SFRP-1, fold induction over SFRP-1 control, single dose

SMILES	fold induction at 20 µM [1]	fold induction at 20 µM [2]	fold induction at 15 µM [3]	fold induction at 15 µM [4]	other results
Cc1ccc(S(=O)(=O)c2ccc(F)cc2)cc1S(=O)(=O)NC1Cc2ccccc2C1 [Example 249, N-2,3-dihydro-1H-inden-2-yl-5-[(4-fluorophenyl)sulfonyl]-2-methylbenzenesulfonamide]	1.9	0.8			
Cc1ccc(S(=O)(=O)c2ccc(F)cc2)cc1S(=O)(=O)N[C@H]1C[C@@H]1c1ccccc1 [Example 250, 5-[(4-fluorophenyl)sulfonyl]-2-methyl-N-[(1S,2R)-2-phenylcyclopropyl]benzenesulfonamide]	1.4	0.9			
Cc1ccc(S(=O)(=O)c2ccc(Cl)cc2)cc1S(=O)(=O)NC1Cc2ccccc2C1 [Example 255, 5-[(4-chlorophenyl)sulfonyl]-N-2,3-dihydro-1H-inden-2-yl-2-methylbenzenesulfonamide]	2.6	1.1			
Cc1ccc(S(=O)(=O)c2ccc(Cl)cc2)cc1S(=O)(=O)N[C@H]1C[C@@H]1c1ccccc1 [Example 256, 5-[(4-chlorophenyl)sulfonyl]-2-methyl-N-[(1S,2R)-2-phenylcyclopropyl]benzenesulfonamide]	1.2	1			
O=S(=O)(NC1Cc2ccccc2C1)c1cccc(S(=O)(=O)c2ccccc2)c1 [Example 258, N-2,3-dihydro-1H-inden-2-yl-3-(phenylsulfonyl)benzenesulfonamide]	1.2	1			
O=S(=O)(N[C@H]1C[C@@H]1c1ccccc1)c1cccc(S(=O)(=O)c2ccccc2)c1 [Example 259, N-[(1S,2R)-2-phenylcyclopropyl]-3-(phenylsulfonyl)benzenesulfonamide]	1	1.1			
C[C@@H](CNS(=O)(=O)c1cccc(S(=O)(=O)c2ccccc2)c1)c1ccccc1 [Example 260, N-[(2R)-2-phenylpropyl]-3-(phenylsulfonyl)benzenesulfonamide]	1.2	1			
CCc1ccc(S(=O)(=O)c2ccccc2)cc1S(=O)(=O)NC1Cc2ccccc2C1 [Example 266, N-2,3-dihydro-1H-inden-2-yl-2-ethyl-5-(phenylsulfonyl)benzenesulfonamide]			2.7	1.2	
CCc1ccc(S(=O)(=O)c2ccccc2)cc1S(=O)(=O)N[C@H]1C[C@@H]1c1ccccc1 [Example 267, 2-ethyl-N-[(1S,2R)-2-phenylcyclopropyl]-5-(phenylsulfonyl)benzenesulfonamide]			2	1.2	
COc1ccc(S(=O)(=O)c2ccccc2)cc1S(=O)(=O)NC1Cc2ccccc2C1 [Example 269, N-2,3-dihydro-1H-inden-2-yl-2-methoxy-5-(phenylsulfonyl)benzenesulfonamide]			1.4	1.2	
COc1ccc(S(=O)(=O)c2ccccc2)cc1S(=O)(=O)N[C@H]1C[C@@H]1c1ccccc1 [Example 270, 2-methoxy-N-[(1S,2R)-2-phenylcyclopropyl]-5-(phenylsulfonyl)benzenesulfonamide]			1.5	1.2	
COc1ccc(CCN(C)S(=O)(=O)c2cc(S(=O)(=O)c3ccccc3)ccc2C)cc1OC [Example 272, N-[2-(3,4-dimethoxyphenyl)ethyl]-N,2-dimethyl-5-(phenylsulfonyl)benzenesulfonamide]			0.9	1	
C=CCN(CCc1ccc(OC)c(OC)c1)S(=O)(=O)c1cc(S(=O)(=O)c2ccccc2)ccc1C [Example 273, N-allyl-N-[2-(3,4-dimethoxyphenyl)ethyl]-2-methyl-5-(phenylsulfonyl)benzenesulfonamide]			0.9	1	
C#CCN(CCc1ccc(OC)c(OC)c1)S(=O)(=O)c1cc(S(=O)(=O)c2ccccc2)ccc1C [Example 274, N-[2-(3,4-dimethoxyphenyl)ethyl]-2-methyl-5-(phenylsulfonyl)-N-prop-2-ynylbenzenesulfonamide]			2	1	
Cc1ccc(S(=O)(=O)c2ccc(C)c(S(=O)(=O)N(C)CCc3ccccc3F)c2)cc1 [Example 275, N-[2-(2-fluorophenyl)ethyl]-N,2-dimethyl-5-[(4-methylphenyl)sulfonyl]benzenesulfonamide]			0.8	0.8	
C=CCN(CCc1ccccc1F)S(=O)(=O)c1cc(S(=O)(=O)c2ccc(C)cc2)ccc1C [Example 276, N-allyl-N-[2-(2-fluorophenyl)ethyl]-2-methyl-5-[(4-methylphenyl)sulfonyl]benzene sulfonamide]			0.8	1	
C#CCN(CCc1ccccc1F)S(=O)(=O)c1cc(S(=O)(=O)c2ccc(C)cc2)ccc1C [Example 277, N-[2-(2-fluorophenyl)ethyl]-2-methyl-5-[(4-methylphenyl)sulfonyl]-N-prop-2-ynylbenzenesulfonamide]			1.8	1	
Cc1ccc(S(=O)(=O)c2ccccc2)cc1S(=O)(=O)N(C)CCc1ccccc1 [Example 278, N,2-dimethyl-N-(2-phenylethyl)-5-(phenylsulfonyl)benzenesulfonamide]			1	0.9	

Continued, in another order:

fold induction at 20 µM [1]	fold induction at 20 µM [2]	fold induction at 15 µM [3]	fold induction at 15 µM [4]	SMILES	other results
2.8	0.9			Cc1ccc(S(=O)(=O)c2ccccc2)cc1S(=O)(=O)NC[C@H](C)c1ccccc1 [Example 248, 2-methyl-N-[(2R)-2-phenylpropyl]-5-(phenylsulfonyl)benzenesulfonamide]	
3	0.8			Cc1ccc(S(=O)(=O)c2ccc(F)cc2)cc1S(=O)(=O)NC[C@H](C)c1ccccc1 [Example 251, 5-[(4-fluorophenyl)sulfonyl]-2-methyl-N-[(2R)-2-phenylpropyl]benzenesulfonamide]	
2.6	1			Cc1ccc(S(=O)(=O)c2ccc(C)c(S(=O)(=O)NC3Cc4ccccc4C3)c2)cc1 [Example 252, N-2,3-dihydro-1H-inden-2-yl-2-methyl-5-[(4-methylphenyl)sulfonyl]benzenesulfonamide]	
1.4	0.9			Cc1ccc(S(=O)(=O)c2ccc(C)c(S(=O)(=O)N[C@H]3C[C@@H]3c3ccccc3)c2)cc1 [Example 253, 2-methyl-5-[(4-methylphenyl)sulfonyl]-N-[(1S,2R)-2-phenylcyclopropyl]benzenesulfonamide]	
3	1			Cc1ccc(S(=O)(=O)c2ccc(C)c(S(=O)(=O)NC[C@H](C)c3ccccc3)c2)cc1 [Example 254, 2-methyl-5-[(4-methylphenyl)sulfonyl]-N-[(2R)-2-phenylpropyl]benzenesulfonamide]	
2.4	1			Cc1ccc(S(=O)(=O)c2ccc(Cl)cc2)cc1S(=O)(=O)NC[C@H](C)c1ccccc1 [Example 257, 5-[(4-chlorophenyl)sulfonyl]-2-methyl-N-[(2R)-2-phenylpropyl]benzenesulfonamide]	
		1.4	0.9	Cc1ccc(S(=O)(=O)c2ccc(F)cc2)cc1S(=O)(=O)NC[C@@H](C)c1ccccc1 [Example 261, 5-[(4-fluorophenyl)sulfonyl]-2-methyl-N-[(2S)-2-phenylpropyl]benzenesulfonamide]	
		1.6	1.1	Cc1ccc(S(=O)(=O)c2ccccc2)cc1S(=O)(=O)NC[C@@H](C)c1ccccc1 [Example 262, 2-methyl-N-[(2S)-2-phenylpropyl]-5-(phenylsulfonyl)benzenesulfonamide]	
		0.8	1.1	C[C@H](CNS(=O)(=O)c1cccc(S(=O)(=O)c2ccccc2)c1)c1ccccc1 [Example 263, N-[(2S)-2-phenylpropyl]-3-(phenylsulfonyl)benzenesulfonamide]	
		1.1	0.9	Cc1ccc(S(=O)(=O)c2ccc(C)c(S(=O)(=O)NC[C@@H](C)c3ccccc3)c2)cc1 [Example 264, 2-methyl-5-[(4-methylphenyl)sulfonyl]-N-[(2S)-2-phenylpropyl]benzenesulfonamide]	Fold Induction with SFRP-1 [5]: 1.7 fold
		1.1	1.1	Cc1ccc(S(=O)(=O)c2ccc(Cl)cc2)cc1S(=O)(=O)NC[C@@H](C)c1ccccc1 [Example 265, 5-[(4-chlorophenyl)sulfonyl]-2-methyl-N-[(2S)-2-phenylpropyl]benzenesulfonamide]	Fold Induction with SFRP-1 [5]: 1.2 fold; Fold Induction without SFRP-1 (Conc 15 μM, without SFRP-1, single dose): 1 fold
		3.6	1.1	CCc1ccc(S(=O)(=O)c2ccccc2)cc1S(=O)(=O)NC[C@H](C)c1ccccc1 [Example 268, 2-ethyl-N-[(2R)-2-phenylpropyl]-5-(phenylsulfonyl)benzenesulfonamide]	
		1.7	1.2	COc1ccc(S(=O)(=O)c2ccccc2)cc1S(=O)(=O)NC[C@H](C)c1ccccc1 [Example 271, 2-methoxy-N-[(2R)-2-phenylpropyl]-5-(phenylsulfonyl)benzenesulfonamide]	
